This note sets out measurements from ChEMBL document CHEMBL3588781, “HPLC-NMR and HPLC-MS Profiling and Bioassay-Guided Identification of Secondary Metabolites from the Australian Plant Haemodorum spicatum” (2015).

The structures appear in SMILES notation. Activity calls are given as the source filed them. The rule behind the calls is not given here.

For assay [1], the system named is Escherichia coli. As to the kind of experiment: Antimicrobial activity against Escherichia coli ATCC 25922 assessed as microbial growth inhibition at 1 mg/ml incubated overnight at 37 degC. The assay is classed as functional. The conditions noted are these: for zone of inhibition at 1000 µg/mL: read-out: IZ.
For assay [2], the system named is Staphylococcus aureus. The assay is described as follows: Antimicrobial activity against Staphylococcus aureus ATCC 25923 assessed as microbial growth inhibition at 1 mg/ml incubated overnight at 37 degC. The assay is classed as functional. The note with it: for zone of inhibition at 1000 µg/mL: read-out: IZ.
Assay [3] concerns Staphylococcus aureus. The assay is described as follows: Antimicrobial activity against methicillin-resistant Staphylococcus aureus 344/2-32 assessed as microbial growth inhibition at 1 mg/ml incubated overnight at 37 degC. The assay is classed as functional. The conditions noted are these: for zone of inhibition at 1000 µg/mL: read-out: IZ.
The subject of assay [4] is Pseudomonas aeruginosa. As to the kind of experiment: Antimicrobial activity against Pseudomonas aeruginosa ATCC 27853 assessed as microbial growth inhibition at 1 mg/ml incubated overnight at 37 degC. In kind it is functional. The note with it: for zone of inhibition at 1000 µg/mL: read-out: IZ.
For assay [5], the system named is Streptococcus pyogenes. As to the kind of experiment: Antimicrobial activity against Streptococcus pyogenes 345/1 assessed as microbial growth inhibition at 1 mg/ml incubated overnight at 37 degC. The assay is classed as functional. The note with it: for zone of inhibition at 1000 µg/mL: read-out: IZ.
Assay [6] has as its system Candida albicans. The assay is described as follows: Antimicrobial activity against Candida albicans ATCC 10231 assessed as microbial growth inhibition at 1 mg/ml incubated overnight at 37 degC. The assay is classed as functional, organism-based.

Turning to `COc1cc2cc(O)c3oc4ccccc4c4ccc(c1=O)c2c34`, the zone of inhibition at 1000 µg/mL in assay [1] amounted to 1 mm; in assay [4], 5 mm; in assay [5], 2 mm. The “inhibition zone (IZ)” value in assay [2], in assay [3] and in assay [6] was “inactive” each time.

`COC1=Cc2cc(=O)oc3ccc(-c4ccccc4)c(c23)C1=O`: in assay [1], the zone of inhibition at 1000 µg/mL came to 1 mm. The “inhibition zone (IZ)” value in assay [2], in assay [3], in assay [4], in assay [5] and in assay [6] was “inactive” throughout.

Regarding `CC1(C)S[C@@H]2[C@H](NC(=O)[C@H](N)c3ccccc3)C(=O)N2[C@H]1C(=O)O` [AMPICILLIN], the “inhibition zone (IZ)” value in assay [1] was “inactive”. Moreover, the zone of inhibition at 1000 µg/mL worked out at 15 mm in assay [2], 3 mm in assay [3], 2 mm in assay [4] and 20 mm in assay [5].

As for `COC1OC(=O)c2ccc(-c3ccccc3)c3c(O)c(O)cc1c23` (stereo unspecified), the zone of inhibition at 1000 µg/mL in assay [1], in assay [4] and in assay [5] was 1 mm throughout. The “inhibition zone (IZ)” value in assay [2], in assay [3] and in assay [6] was “inactive” in each case.

With `O=c1ccc2cc(O)c3oc4ccccc4c4ccc1c2c34`, the “inhibition zone (IZ)” value in assay [1], in assay [2], in assay [3] and in assay [6] was “inactive” each time. For the same compound, the zone of inhibition at 1000 µg/mL turned out to be 3 mm in assay [4] and 1 mm in assay [5].

With `COc1cc2cc(OC)c3oc4ccccc4c4ccc(c1=O)c2c34`, the “inhibition zone (IZ)” value in assay [1], in assay [2], in assay [3] and in assay [6] was “inactive” in each case. Besides, the zone of inhibition at 1000 µg/mL in assay [4] amounted to 4 mm; in assay [5], 2 mm.

Consider `COC(=O)Nc1nc2ccccc2[nH]1`, for which the “inhibition zone (IZ)” value in assay [6] is “inactive”.

As to `COc1cc2ccc(=O)c3ccc4c5ccccc5oc1c4c23`, the “inhibition zone (IZ)” value in assay [1] and in assay [6] was “inactive” each time. Also, the zone of inhibition at 1000 µg/mL came out at 1 mm in assay [2], 1 mm in assay [3], 3 mm in assay [4] and 3 mm in assay [5].

Regarding `COC1=Cc2cc(OC)c(OC)c3ccc(-c4ccccc4)c(c23)C1=O`, the zone of inhibition at 1000 µg/mL in assay [1], in assay [3], in assay [4] and in assay [5] was 1 mm throughout. Also, the “inhibition zone (IZ)” value in assay [2] and in assay [6] was “inactive” in each case.

`COC1=Cc2ccc(OC)c3ccc(-c4ccccc4)c(c23)C1=O`: the zone of inhibition at 1000 µg/mL in assay [1] amounted to 1 mm; in assay [4], 3 mm; in assay [5], 1 mm. The “inhibition zone (IZ)” value in assay [2], in assay [3] and in assay [6] was “inactive” in each case.

For `COc1cc(OC)c2ccc(-c3ccccc3)c3c2c1C=C(O)C3=O`, the zone of inhibition at 1000 µg/mL in assay [1] was determined as 1 mm; in assay [2] it was 1 mm; in assay [3], 1 mm; in assay [4], 5 mm; in assay [5], 1 mm. Further, the “inhibition zone (IZ)” value in assay [6] was “inactive”.

`COC1=Cc2cc(O)c(OC)c3ccc(-c4ccccc4)c(c23)C1=O`: the zone of inhibition at 1000 µg/mL in assay [1], in assay [2], in assay [4] and in assay [5] was 1 mm throughout. Also, the “inhibition zone (IZ)” value in assay [3] and in assay [6] was “inactive” throughout.
